Data from patent US20170298380A1, “IMIDAZOLINONE HERBICIDE RESISTANT BORAGE” (Bioriginal Food & Science Corp., priority 2016, published 2017).
“Also recorded” adds a separate entry of the source. Like-named read-outs stand apart in the source and are kept apart here.

Assays:
[1] = test system: borage seeds (M1); type: in vivo, Borago officinalis
Protocol: Approximately 164000 borage seeds were divided into 6 groups for mutagenesis. The seeds (M1) were soaked in 0.5%, 1.0% and 1.5% (v/v) of EMS solutions for 8 hours and 16 hours respectively, and then rinsed with tap water for 4 hours. After washing, the seeds are dried with paper towel. The mutagenized seeds were sowed in 48 plots in a research farm in Saskatoon, SK, in June, 2012. Each plot was 7.5×1.5 m in size and sowed 86 g of mutagenized seeds. M1 borage plants were grown to maturity and M2 seeds were harvested by groups according to the EMS treatments.

[2] = test system: M4 homozygous imidazolinone-resistant borage (AHAS1 mutant); type: in vivo, Borago officinalis; settings: AHAS1 mutant line, 2X of the recommended rate, 21 days after spraying
Protocol: Adjuvant reagent for each herbicide was added into spray solution accordingly. Sprayed M4 borage plants were visually evaluated at 21 days after spraying by comparing with wild-type controls.

[3] = test system: AHAS enzyme of homozygous resistant borage (AHAS1 mutant); test: In vitro AHAS activity assay, resistant (AHAS1 mutant) borage leaf protein extract; type: biochemical, Borago officinalis; settings: across all imazamox concentrations (0-625 μM)
Source text: (§1) The herbicide imazamox is an inhibitor of the AHAS enzyme. […] It has been shown from the above Examples that the AHAS1 mutant borage line can tolerate two times the recommended dosage of “Solo” herbicide and the tolerance is caused by the single nucleotide mutation of the AHAS1 gene. As such, the AHAS activity level of the mutant plants would provide further evidence to support the conclusion. AHAS enzyme activity is generally measured using a discontinuous colorimetric assay based on the method developed by Singh et al. (Singh B K, et al. Assay of acetohydroxyacid synthase. Analytical Biochemistry 171 (1988) 173-179). In this method, the crude protein is incubated with the substrate for a fixed time to generate intermediate acetolactate that is then converted to acetoin under decarboxylation. Finally, the reaction of acetoin with creatine and α-naphthol forms a pink-colored product which can be measured at 520 nm wavelength in a spectrometer. As a result, the AHAS activity level can be estimated based on the color density. See Duggleby R G and Pang S S. (2000) supra. […]
(§2) The gummy protein layer was re-dissolved in 1.4 mL incubation buffer containing 50 mM K2HPO4 buffer (pH 7.0), 100 mM sodium pyruvate, 10 mM MgCl2, 1 mM TPP and 1 μM FAD. The amount of protein in each sample was determined immediately by the Bio-Rad protein assay using a dye reagent (#500-0006). […]

[4] = test system: AHAS enzyme of susceptible borage (wild-type); test: In vitro AHAS activity assay, susceptible (wild-type) borage leaf protein extract; type: biochemical, Borago officinalis; settings: 625 μM imazamox
Source text: as §1, §2

In the case of `CCOS(C)(=O)=O` [EMS, ethyl methanesulfonate], the “Germination Rate (%)” value ([1]; 0.5% EMS 8 hrs) is reported as 19%, the “Germination Rate (%)” value ([1]; 0.5% EMS 16 hrs) is reported as 8% and the “Germination Rate (%)” value ([1]; 1.0% EMS 8 hrs) is reported as 15%. For the same compound, the “Germination Rate (%)” value ([1]; 1.0% EMS 16 hrs) was 9%, the “Germination Rate (%)” value ([1]; 1.5% EMS 8 hrs) was 11% and the “Germination Rate (%)” value ([1]; 1.5% EMS 16 hrs) was 8%. The germination rate ([1]; all EMS-treated M1 seeds sown in the field) was “about 12%” and the “sterility of M1” value ([1]; in vivo) was “pronounced sterility”.
For `COc1nn(C(=O)[N-]S(=O)(=O)c2ccccc2OC(F)(F)F)c(=O)n1C.[Na+]` [flucarbazone sodium], the “level of resistance / tolerance (in words)” value [2] was “some tolerance”.
`COCc1cnc(C2=NC(C)(C(C)C)C(=O)N2)c(C(=O)O)c1` (stereo not shown) [imazamox, 2-[4,5-dihydro-4-methyl-4-(1-methylethyl)-5-oxo-1H-imidazol-2-yl]-5-(methoxymethl)-3-pyridinecarboxylic acid.] was tested, and the “AHAS activity of mutant compared with wild type” value [3] was “significantly higher AHAS activity than the wild type borage”, the AHAS activity retained [4] was “zero and completely inhibited” and the “level of resistance / tolerance (in words)” value [2] was “strong resistance; also recorded: equally strong resistant level”.
With `CCc1cnc(C2=NC(C)(C(C)C)C(=O)N2)c(C(=O)O)c1` (stereo not shown) [imazethapyr, 2-[4.5-dihydro-4-methyl-4-(1-methylethyl)-5-oxo-1H-imidazol-2-yl]-5-ethyl-3-pyridinecarboxylic acid] the “level of resistance / tolerance (in words)” value [2] was “strong resistance; also recorded: equally strong resistant level”.
